In US20260166141A1, “PHARMACEUTICAL COMPOSITION OF RIP2 INHIBITOR IN COMBINATION WITH IMMUNE CHECKPOINT INHIBITOR AND USE THEREOF” (NINGBO COMBIREG PHARMACEUTICAL TECHNOLOGY CO., LTD., priority 2022, published 2026):

Key:
Type in all cases: in vivo
colorectal cancer (MC38) [1] = assay: colorectal cancer (MC38) tumor-bearing model in C57BL/6 mice, GSK583 combined with pembrolizumab; details: Day 20; pembrolizumab 150 μg/mouse i.p.; GSK583 1 mg/kg i.v. once every 4 days; compared to IgG control
Procedure: (§1) Test substances pembrolizumab (Merck & Co., Inc.) and IgG control antibody (in VivoMAb human IgG1 isotype control; BioXCell, BE0297) were prepared in saline. GSK583 was formulated as a 20× stock solution in DMSO and diluted to the dosing concentration with saline containing 5% polyoxyl 35 castor oil (Cremophor EL) before use.
(§2) Experimental animals and tumor lines: SPF-grade male wild-type C57BL/6 mice (6 to 8 weeks old, 20 to 25 g) were purchased from the Laboratory Animal Resources Center, Tsinghua University. The cells used in the experiment were murine colorectal cancer cells (MC38), which were purchased from the Cell Bank of Peking Union Medical College.
According to the method shown in (A and B of FIG. 7), the mice were subcutaneously inoculated with MC38 cells at a concentration of 5×10^6 cells/mL and 0.1 mL/mouse. When the tumor grew to a volume within the range of 100 mm^3, the mice were randomly divided into 3 groups based on tumor volume, with 6 to 7 mice per group, and dosing was initiated. […] The day of grouping and dosing was recorded as Day 0. During the dosing process, the animals were weighed every 2 to 3 days, and the long and short diameters of the tumor were measured with a vernier caliper. The tumor size was calculated by the formula: (½)×long diameter×(short diameter)^2. […]

colorectal cancer (MC38) [2] = assay: colorectal cancer (MC38) tumor-bearing model in C57BL/6 mice, GSK583 combined with atezolizumab; details: for tumor growth (tumor volume progression): atezolizumab 150 μg/mouse i.p. Days 0, 4, 11, GSK583 1 mg/kg i.v. once every 4 days, 4 doses, compared to IgG control
Procedure: as §1, with “atezolizumab (Roche)” for “pembrolizumab (Merck & Co., Inc.)”
as §2
According to the method shown in (A and B of FIG. 3), the mice were subcutaneously inoculated with MC38 cells at a concentration of 5×10^6 cells/mL and 0.1 mL/mouse. When the tumor grew to a volume within the range of 100 mm^3, the mice were randomly divided into 4 groups based on tumor volume, with 6 to 8 mice per group, and dosing was initiated. The dosing regimen was as follows: (i) blank control (IgG control, 150 μg/mouse) group; (ii) GSK583 (1 mg/kg) group; (iii) atezolizumab (150 μg/mouse) group; (iv) atezolizumab (150 μg/mouse)+GSK583 (1 mg/kg). GSK583 was administered via intravenous injection once every 4 days for a total of 4 doses; IgG control and atezolizumab were administered via intraperitoneal injection on Days 0, 4, and 11 for a total of 3 doses. The day of grouping and dosing was recorded as Day 0. During the dosing process, the animals were weighed every 2 to 3 days, and the long and short diameters of the tumor were measured with a vernier caliper. The tumor size was calculated by the formula: (½)×long diameter×(short diameter)^2. The experiment was terminated on Day 15. After the mice were euthanized and dissected, the tumor was removed and weighed, and the tumor inhibition rate was calculated.

colorectal cancer (MC38) [3] = assay: colorectal cancer (MC38) tumor-bearing model in WT and RIP2−/− C57BL/6 mice, atezolizumab; details: for tumor growth (tumor volume progression): 150 μg/mouse i.p. Days 0, 4, 11, 18; for tumor weight: compared to corresponding control group
Procedure: Test substances atezolizumab (Roche) and IgG control antibody (in VivoMAb human IgG1 isotype control; BioXCell, BE0297) were prepared in saline. Experimental animals and tumor lines: SPF-grade male wild-type (WT) C57BL/6 mice (20 to 25 g) and RIP2 knockout (RIP2^−/−) mice (6 to 8 weeks old, 20 to 25 g) were purchased from Shanghai Model Organisms Center, Inc. The mice were generated using CRISPR-Cas9 technology and bred at the Laboratory Animal Resources Center, Tsinghua University. The cells used in the experiment were murine colorectal cancer cells (MC38), which were purchased from the Cell Bank of Peking Union Medical College.
According to the method shown in (A and B of FIG. 1), the mice were subcutaneously inoculated with MC38 cells at a concentration of 5×10^6 cells/mL and 0.1 mL/mouse. When the tumor grew to a volume within the range of 100 mm^3, WT mice and RIP2^−/− mice were randomly divided into 2 groups based on tumor volume, with 6 to 8 mice per group, and dosing was initiated. The dosing regimen was as follows: (i) WT-blank control (WT-IgG control, 150 μg/mouse) group; (ii) WT-atezolizumab (150 μg/mouse) group; (iii) RIP2^−/−-blank control (RIP2^−/−-IgG control, 150 μg/mouse) group; (iv) RIP2^−/−-atezolizumab (150 μg/mouse) group. IgG control and atezolizumab were administered via intraperitoneal injection on Days 0, 4, 11, and 18 for a total of 4 doses. The day of grouping and dosing was recorded as Day 0. During the dosing process, the animals were weighed every 2 to 3 days, and the long and short diameters of the tumor were measured with a vernier caliper. The tumor size was calculated by the formula: (1/2)×long diameter×(short diameter)^2. The experiment was terminated on Day 20. After the mice were euthanized and dissected, the tumor was removed and weighed, and the tumor inhibition rate was calculated by the formula: [([…])/average tumor weight of the control group]×100%.

Compound | tumor growth (tumor volume progression) (colorectal cancer (MC38) [1]) | tumor growth (tumor volume progression) (colorectal cancer (MC38) [2]) | inhibitory effect on tumor growth, RIP2−/− mice compared to WT mice (colorectal cancer (MC38) [3]; 150 μg/mouse i.p., tumor volume) | tumor growth (tumor volume progression) (colorectal cancer (MC38) [3]; RIP2−/− mice, compared to RIP2−/−-IgG control) | tumor weight (colorectal cancer (MC38) [3]; RIP2−/− mice, end of dosing (Day 20)) | tumor growth (tumor volume progression) (colorectal cancer (MC38) [3]; WT mice, compared to WT-IgG control) | tumor weight (colorectal cancer (MC38) [3]; WT mice, end of dosing (Day 20)) | anti-tumor effect (tumor weight, tumor weight inhibition rate), RIP2−/− mice compared to WT mice (colorectal cancer (MC38) [3]; end of dosing (Day 20)) | tumor weight (colorectal cancer (MC38) [2]; end of dosing (Day 15), compared to control group)
pembrolizumab: programmed death 1 (PD-1) inhibitor, pembrolizumab (Merck & Co., Inc.) | significantly inhibited tumor growth |  |  |  |  |  |  |  | 
CC(C)(C)S(=O)(=O)c1ccc2nccc(Nc3n[nH]c4ccc(F)cc34)c2c1 [GSK583] |  | no significant inhibitory effect on tumor growth |  |  |  |  |  |  | 
atezolizumab: programmed death-ligand 1 (PD-L1) inhibitor, atezolizumab (Roche) |  | significantly inhibited tumor growth | significantly improved | significantly inhibited tumor growth | significantly reduced tumor weight | significantly inhibited tumor growth | significantly reduced tumor weight | significantly stronger than that in WT mice | significantly lower than that in the control group
